Patent US20240158446A1, “CYCLIC COMPOUND HAVING SELECTIVE INHIBITORY ACTION ON KRAS OVER HRAS AND NRAS” (CHUGAI SEIYAKU KABUSHIKI KAISHA, priority 2021, published 2024)
*1 amine or outer side, *2 acyl side, *3 side chain or, on linkers, in order; H or OH if unused. Where a SMILES comes first, the peptide text is derived from it. Bridges are numbered along the chain shown (N, C = ends). [ ]: non-standard residue; d: D form. The star is where a group is joined. hPhe(3,5-F2-4-CF3) = N[C@@H](CCc1cc(F)c(C(F)(F)F)c(F)c1)C(=O)O; NPrPhe(4-CF3) = CCCN[C@@H](Cc1ccc(C(F)(F)F)cc1)C(=O)O; X29 = CN([C@@H](CCCC=[*:3])C(=O)[*:2])[*:1]; dαMeAlg = C[C@](CC=[*:3])(N[*:1])C(=O)[*:2]; NMeGly(cPent) = CN[C@H](C(=O)O)C1CCCC1; Hyp = O=C(O)[C@@H]1C[C@@H](O)CN1; NMeD = CN[C@@H](CC(=O)O)C(=O)O; Morpholide = C1CN(*)CCO1; Sar = CNCC(=O)O

Key:
[1] = biological target: GDP-bound HRAS wild-type protein (Homo sapiens, UniProt P01112); experiment: Binding to HRAS by surface plasmon resonance (SPR), Single Cycle Kinetics; settings: SPR, GDP-bound HRAS wild-type protein vs GDP-bound KRAS wild-type protein
[2] = biological target: GDP-bound NRAS wild-type protein (Homo sapiens, UniProt P01111); experiment: Binding to NRAS by surface plasmon resonance (SPR), Single Cycle Kinetics; settings: SPR, GDP-bound NRAS wild-type protein vs GDP-bound KRAS wild-type protein
[3] = biological target: GDP-bound KRAS wild-type protein (Homo sapiens, UniProt P01116); experiment: Binding to KRAS by surface plasmon resonance (SPR), Single Cycle Kinetics; settings: SPR, Single Cycle Kinetics, GDP-bound KRAS wild-type protein; read-out: KRAS KD
Sequence of GDP-bound KRAS wild-type protein (P01116 whole entry): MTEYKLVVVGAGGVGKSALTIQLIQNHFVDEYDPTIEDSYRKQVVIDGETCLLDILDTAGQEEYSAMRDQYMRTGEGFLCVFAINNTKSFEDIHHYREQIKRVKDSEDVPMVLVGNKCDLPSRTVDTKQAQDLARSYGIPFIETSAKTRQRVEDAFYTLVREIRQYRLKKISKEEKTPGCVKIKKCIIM

Sequence of GDP-bound HRAS wild-type protein (P01112 whole entry): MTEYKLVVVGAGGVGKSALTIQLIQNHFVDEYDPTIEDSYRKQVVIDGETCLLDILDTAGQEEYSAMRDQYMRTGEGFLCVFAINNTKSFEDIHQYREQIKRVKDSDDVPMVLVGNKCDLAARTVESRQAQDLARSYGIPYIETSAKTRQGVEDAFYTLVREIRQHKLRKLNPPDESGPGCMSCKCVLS
Sequence of GDP-bound NRAS wild-type protein (P01111 whole entry): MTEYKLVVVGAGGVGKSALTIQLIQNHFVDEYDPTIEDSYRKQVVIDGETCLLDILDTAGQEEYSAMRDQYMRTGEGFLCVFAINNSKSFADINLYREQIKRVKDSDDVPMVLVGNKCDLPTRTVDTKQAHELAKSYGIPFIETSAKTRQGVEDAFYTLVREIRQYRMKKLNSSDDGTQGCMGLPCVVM

Structure (SMILES)	Kd [3] [nM]	HRAS/KRAS (ratio of KD value for HRAS to KD value for KRAS) [1]	NRAS/KRAS (ratio of KD value for NRAS to KD value for KRAS) [2]
CCO[C@@H]1C[C@H]2C(=O)NC3(CCC3)C(=O)N(C)[C@@H](C3CCCC3)C(=O)N(C)[C@H](C(=O)N(C)C)CC(=O)N(C)[C@@H](CC)C(=O)N[C@@H]([C@@H](C)CC)C(=O)N(C)CC(=O)N(C)[C@H]3CCCCCN(C3=O)[C@@H](Cc3ccc(F)c(Cl)c3)C(=O)N(C)CC(=O)N[C@@H](CCc3cc(F)c(C(F)(F)F)c(F)c3)C(=O)N2C1 [PP0909]	0.48	B (a compound having 3 or more and less than 10 is denoted as B)	B (a compound having 3 or more and less than 10 is denoted as B)
CCO[C@@H]1C[C@H]2C(=O)NC3(CCC3)C(=O)N(C)[C@@H](C3CCCC3)C(=O)N(C)[C@H](C(=O)N(C)C)CC(=O)N(C)[C@@H](CC)C(=O)N[C@@H]([C@@H](C)CC)C(=O)N(C)CC(=O)N(C)[C@H]3CCCCCN(C3=O)[C@@H](Cc3ccc(F)cc3C)C(=O)N(C)CC(=O)N[C@@H](CCc3cc(F)c(C(F)(F)F)c(F)c3)C(=O)N2C1 [PP0911]	0.06	B (a compound having 3 or more and less than 10 is denoted as B)	B (a compound having 3 or more and less than 10 is denoted as B)
CCO[C@@H]1C[C@H]2C(=O)NC3(CCC3)C(=O)N(C)[C@@H](C3CCCC3)C(=O)N(C)[C@H](C(=O)N(C)C)CC(=O)N(C)[C@@H](CC)C(=O)N[C@@H]([C@@H](C)CC)C(=O)N(C)CC(=O)N(C)[C@H]3CCCCCN(C3=O)[C@@H](Cc3ccc(F)c(OC)c3)C(=O)N(C)CC(=O)N[C@@H](CCc3cc(F)c(C(F)(F)F)c(F)c3)C(=O)N2C1 [PP0915]	0.14	B (a compound having 3 or more and less than 10 is denoted as B)	B (a compound having 3 or more and less than 10 is denoted as B)
CCO[C@@H]1C[C@H]2C(=O)NC3(CCC3)C(=O)N(C)[C@@H](C3CCCC3)C(=O)N(C)[C@H](C(=O)N3CCOCC3)CC(=O)N(C)[C@@H](CC(C)C)C(=O)N[C@@H]([C@@H](C)CC)C(=O)N(C)CC(=O)N(C)[C@H]3CCCCCN(C3=O)[C@@H](Cc3ccc(F)c(Cl)c3)C(=O)N(C)CC(=O)N[C@@H](CCc3cc(F)c(C(F)(F)F)c(F)c3)C(=O)N2C1 [PP0919]	0.81	B (a compound having 3 or more and less than 10 is denoted as B)	B (a compound having 3 or more and less than 10 is denoted as B)
CCO[C@@H]1C[C@H]2C(=O)NC3(CCC3)C(=O)N(C)[C@@H](C3CCCC3)C(=O)N(C)[C@H](C(=O)N3CCOCC3)CC(=O)N(C)[C@@H](CC(C)C)C(=O)N[C@@H]([C@@H](C)CC)C(=O)N(C)CC(=O)N(C)[C@H]3CCCCCN(C3=O)[C@@H](Cc3ccc(F)c(C)c3)C(=O)N(C)CC(=O)N[C@@H](CCc3cc(F)c(C(F)(F)F)c(F)c3)C(=O)N2C1 [PP0922]	0.5	B (a compound having 3 or more and less than 10 is denoted as B)	B (a compound having 3 or more and less than 10 is denoted as B)
CCO[C@@H]1C[C@H]2C(=O)NC3(CCC3)C(=O)N(C)[C@@H](C3CCCC3)C(=O)N(C)[C@H](C(=O)N3CCOCC3)CC(=O)N(C)[C@@H](Cc3ccc(F)c(F)c3)C(=O)N[C@@H]([C@@H](C)CC)C(=O)N(C)CC(=O)N(C)[C@H]3CCCCCN(C3=O)[C@@H](Cc3ccc(C(F)(F)F)cc3)C(=O)N(C)CC(=O)N[C@@H](CCc3cc(F)c(C(F)(F)F)c(F)c3)C(=O)N2C1 [PP0928]	1	B (a compound having 3 or more and less than 10 is denoted as B)	A (a compound having 10 or more and less than 20 is denoted as A)
CCO[C@@H]1C[C@H]2C(=O)NC3(CCC3)C(=O)N(C)[C@@H](C3CCCC3)C(=O)N(C)[C@H](C(=O)N3CCOCC3)CC(=O)N(C)[C@@H](Cc3ccccc3Cl)C(=O)N[C@@H]([C@@H](C)CC)C(=O)N(C)CC(=O)N(C)[C@H]3CCCCCN(C3=O)[C@@H](Cc3ccc(C(F)(F)F)cc3)C(=O)N(C)CC(=O)N[C@@H](CCc3cc(F)c(C(F)(F)F)c(F)c3)C(=O)N2C1 [PP0929]	2.7	B (a compound having 3 or more and less than 10 is denoted as B)	A (a compound having 10 or more and less than 20 is denoted as A)
CCO[C@@H]1C[C@H]2C(=O)NC3(CCC3)C(=O)N(C)[C@@H](C3CCCC3)C(=O)N(C)[C@H](C(=O)N3CCOCC3)CC(=O)N(C)[C@@H](Cc3ccc(C)cc3)C(=O)N[C@@H]([C@@H](C)CC)C(=O)N(C)CC(=O)N(C)[C@H]3CCCCCN(C3=O)[C@@H](Cc3ccc(C(F)(F)F)cc3)C(=O)N(C)CC(=O)N[C@@H](CCc3cc(F)c(C(F)(F)F)c(F)c3)C(=O)N2C1 [PP0933]	1.6	B (a compound having 3 or more and less than 10 is denoted as B)	A (a compound having 10 or more and less than 20 is denoted as A)

The next lines start with results.

Kd [3] [nM]	Structure (SMILES)	HRAS/KRAS (ratio of KD value for HRAS to KD value for KRAS) [1]	NRAS/KRAS (ratio of KD value for NRAS to KD value for KRAS) [2]
3	CCCN1C(=O)CN(C)C(=O)CN(C)C(=O)[C@H]([C@@H](C)CC)NC(=O)[C@@H]2CCCC=CC[C@@](C)(NC(=O)[C@@H]3C[C@@H](OCC)CN3C(=O)[C@H](CCc3cc(F)c(C(F)(F)F)c(F)c3)NC(=O)CN(C)C(=O)[C@@H]1Cc1ccc(C(F)(F)F)cc1)C(=O)N(C)[C@@H](C1CCCC1)C(=O)N(C)[C@H](C(=O)N1CCOCC1)CC(=O)N2C [PP0901] ([X29]I[Sar][Sar][NPrPhe(4-CF3)][Sar][hPhe(3,5-F2-4-CF3)][Hyp](Et)[dαMeAlg][NMeGly(cPent)][NMeD]-Morpholide; staple 1-9; lactam N-11)	B (a compound having 3 or more and less than 10 is denoted as B)	B (a compound having 3 or more and less than 10 is denoted as B)
0.43	CCO[C@@H]1C[C@H]2C(=O)NC3(CCC3)C(=O)N(C)[C@@H](C3CCCC3)C(=O)N(C)[C@H](C(=O)N(C)C)CC(=O)N(C)[C@@H](CC)C(=O)N[C@@H]([C@@H](C)CC)C(=O)N(C)CC(=O)N(C)[C@H]3CCCCCN(C3=O)[C@@H](Cc3ccc(F)cc3OC)C(=O)N(C)CC(=O)N[C@@H](CCc3cc(F)c(C(F)(F)F)c(F)c3)C(=O)N2C1 [PP0914]	B (a compound having 3 or more and less than 10 is denoted as B)	B (a compound having 3 or more and less than 10 is denoted as B)
0.4	CCO[C@@H]1C[C@H]2C(=O)NC3(CCC3)C(=O)N(C)[C@@H](C3CCCC3)C(=O)N(C)[C@H](C(=O)N3CCOCC3)CC(=O)N(C)[C@@H](CC(C)C)C(=O)N[C@@H]([C@@H](C)CC)C(=O)N(C)CC(=O)N(C)[C@H]3CCCCCN(C3=O)[C@@H](Cc3ccc(F)cc3Cl)C(=O)N(C)CC(=O)N[C@@H](CCc3cc(F)c(C(F)(F)F)c(F)c3)C(=O)N2C1 [PP0918]	B (a compound having 3 or more and less than 10 is denoted as B)	B (a compound having 3 or more and less than 10 is denoted as B)
0.82	CCO[C@@H]1C[C@H]2C(=O)NC3(CCC3)C(=O)N(C)[C@@H](C3CCCC3)C(=O)N(C)[C@H](C(=O)N3CCOCC3)CC(=O)N(C)[C@@H](CC(C)C)C(=O)N[C@@H]([C@@H](C)CC)C(=O)N(C)CC(=O)N(C)[C@H]3CCCCCN(C3=O)[C@@H](Cc3ccc(F)cc3OC)C(=O)N(C)CC(=O)N[C@@H](CCc3cc(F)c(C(F)(F)F)c(F)c3)C(=O)N2C1 [PP0924]	B (a compound having 3 or more and less than 10 is denoted as B)	B (a compound having 3 or more and less than 10 is denoted as B)
2.4	CCO[C@@H]1C[C@H]2C(=O)NC3(CCC3)C(=O)N(C)[C@@H](C3CCCC3)C(=O)N(C)[C@H](C(=O)N3CCOCC3)CC(=O)N(C)[C@@H](Cc3ccccc3F)C(=O)N[C@@H]([C@@H](C)CC)C(=O)N(C)CC(=O)N(C)[C@H]3CCCCCN(C3=O)[C@@H](Cc3ccc(C(F)(F)F)cc3)C(=O)N(C)CC(=O)N[C@@H](CCc3cc(F)c(C(F)(F)F)c(F)c3)C(=O)N2C1 [PP0926]	B (a compound having 3 or more and less than 10 is denoted as B)	B (a compound having 3 or more and less than 10 is denoted as B)
1.9	CCO[C@@H]1C[C@H]2C(=O)NC3(CCC3)C(=O)N(C)[C@@H](C3CCCC3)C(=O)N(C)[C@H](C(=O)N3CCOCC3)CC(=O)N(C)[C@@H](Cc3ccccc3C)C(=O)N[C@@H]([C@@H](C)CC)C(=O)N(C)CC(=O)N(C)[C@H]3CCCCCN(C3=O)[C@@H](Cc3ccc(C(F)(F)F)cc3)C(=O)N(C)CC(=O)N[C@@H](CCc3cc(F)c(C(F)(F)F)c(F)c3)C(=O)N2C1 [PP0931]	B (a compound having 3 or more and less than 10 is denoted as B)	A (a compound having 10 or more and less than 20 is denoted as A)
0.43	CCO[C@@H]1C[C@H]2C(=O)NC3(CCC3)C(=O)N(C)[C@@H](C3CCCC3)C(=O)N(C)[C@H](C(=O)N(C)C)CC(=O)N(C)[C@@H](Cc3cccc(F)c3)C(=O)N[C@@H]([C@@H](C)CC)C(=O)N(C)CC(=O)N(C)[C@H]3CCCCCN(C3=O)[C@@H](Cc3ccc(C(F)(F)F)cc3)C(=O)N(C)CC(=O)N[C@@H](CCc3cc(F)c(C(F)(F)F)c(F)c3)C(=O)N2C1 [PP0935]	B (a compound having 3 or more and less than 10 is denoted as B)	B (a compound having 3 or more and less than 10 is denoted as B)
